Measured values taken from US20250115598A1 (Anaxis Pharma Pty Ltd, priority 2021, published 2025).
Read-outs that look alike come from different tables or passages of the source.

Assays:
human MLKL (full length) = human MLKL (full length) (Homo sapiens (Human), UniProt Q8NB16); assay: KINOMEscan binding assay, human MLKL (full length)
Method in brief: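 Kd values come from dose-response fits to the Hill equation (Hill slope −1, Levenberg–Marquardt least squares). Compound competed with bead-bound ligand for tagged kinase, and remaining kinase was measured by qPCR after elution. Dilution series: 11 points, 3-fold, 1% DMSO final, top 30,000 nM in most runs.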

[1] = tested on: Immortalised Mouse Dermal Fibroblasts (MDFs); assay: Cellular assay: inhibition of TSI induced necroptosis, CellTitre-Glo viability; conditions: MDF, 3 hours TSI cocktail, read-out: Inhibition of TSI-induced necroptosis (IC50 cell-based assay) in MDF
Method in brief: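 Immortalised mouse dermal fibroblasts (2200 cells/well) pretreated 30 min with compound, 10-point 1:3 series from 36 μM, 0.3% DMSO. Then 3 h at 37° C. with TNF (100 ng/ml), Smac mimetic (500 nM) and IDN-6556 (10 μM). CellTiter-Glo luminescence normalised to DMSO (100%) and DMSO+TSI (0%); IC50 from 4-parameter logistic fit.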

[2] = KINOMEscan, Table 21, read-out: Human MLKL (full-length) (KD)
[3] = hMLKL, Table 25, read-out: MLKL (KD)
[4] = Mus musculus, Fibroblast, Table 27

Chain of human MLKL (full length) (Q8NB16 whole entry): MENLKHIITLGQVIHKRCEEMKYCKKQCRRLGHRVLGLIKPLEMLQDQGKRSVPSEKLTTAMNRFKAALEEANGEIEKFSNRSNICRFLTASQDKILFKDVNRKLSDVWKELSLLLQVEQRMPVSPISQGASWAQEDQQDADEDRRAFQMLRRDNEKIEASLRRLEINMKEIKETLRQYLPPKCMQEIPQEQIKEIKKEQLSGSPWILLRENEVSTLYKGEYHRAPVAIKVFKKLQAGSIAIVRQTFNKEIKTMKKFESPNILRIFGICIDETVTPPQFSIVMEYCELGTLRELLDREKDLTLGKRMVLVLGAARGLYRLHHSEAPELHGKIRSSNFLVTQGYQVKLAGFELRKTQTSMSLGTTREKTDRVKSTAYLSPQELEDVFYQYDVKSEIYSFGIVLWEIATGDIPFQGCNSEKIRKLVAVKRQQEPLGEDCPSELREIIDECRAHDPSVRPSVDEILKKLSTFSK

Kd (human MLKL (full length); [2]) [nM] | Kd (human MLKL (full length); [3]) [nM] | Compound | IC50 ([1]; Table 24) [nM] | IC50 [1, 4] [nM]
1 to 100 |  | Nc1ncc(-c2cnn(C3CCOCC3)c2)c2[nH]nc(-c3ccc(NS(=O)(=O)C(F)F)c(OCc4cccc(Cl)c4)c3)c12 [Compound 131] | 1000 to 10000 | 
 | < 10 | Cc1ncsc1-c1ccc(CNC(=O)[C@@H]2C[C@@H](O)CN2C(=O)[C@@H](NC(=O)COCCOCCn2cc(-c3cnc(N)c4c(-c5ccc(NS(=O)(=O)C(F)F)c(O[C@@H](C)c6ccc(F)cc6)c5)nn(C)c34)cn2)C(C)(C)C)cc1 [Compound 1006, (2S,4R)-1-[(2S)-2-(2-{2-[2-(4-{4-amino-3-[4-(difluoromethanesulfonamido)-3-[(1S)-1-(4-fluorophenyl)ethoxy]phenyl]-1-methyl-1H-pyrazolo[4,3-c]pyridin-7-yl}-1H-pyrazol-1-yl)ethoxy]ethoxy}acetamido)-3,3-dimethylbutanoyl]-4-hydroxy-N-{[4-(4-methyl-1,3-thiazol-5-yl)phenyl]methyl}pyrrolidine-2-carboxamide] |  | 1000 to 10000
 | < 10 | Cc1ncsc1-c1ccc(CNC(=O)[C@@H]2C[C@@H](O)CN2C(=O)[C@@H](NC(=O)CCCCCCn2cc(-c3cnc(N)c4c(-c5ccc(NS(=O)(=O)C(F)F)c(O[C@@H](C)c6ccc(F)cc6)c5)nn(C)c34)cn2)C(C)(C)C)cc1 [Compound 1008, (2S,4R)-1-[(2S)-2-[7-(4-{4-amino-3-[4-(difluoromethanesulfonamido)-3-[(1 S)-1-(4-fluorophenyl)ethoxy]phenyl]-1-methyl-1H-pyrazolo[4,3-c]pyridin-7-yl}-1H-pyrazol-1-yl)heptanamido]-3,3-dimethylbutanoyl]-4-hydroxy-N-{[4-(4-methyl-1,3-thiazol-5-yl)phenyl]methyl}pyrrolidine-2-carboxamide] |  | < 1000
 |  | Cc1ncsc1-c1ccc(CNC(=O)[C@@H]2C[C@@H](O)CN2C(=O)[C@@H](NC(=O)CCN2CCCC(n3cc(-c4cnc(N)c5c(-c6ccc(NS(=O)(=O)C(F)F)c(O[C@@H](C)c7ccc(F)cc7)c6)nn(C)c45)cn3)C2)C(C)(C)C)cc1 (stereo partly drawn) [Compound 1014, (2S,4R)-1-[(2S)-2-{3-[3-(4-{4-amino-3-[4-(difluoromethanesulfonamido)-3-[(1S)-1-(4-fluorophenyl)ethoxy]phenyl]-1-methyl-1H-pyrazolo[4,3-c]pyridin-7-yl}-1H-pyrazol-1-yl)piperidin-1-yl]propanamido}-3,3-dimethylbutanoyl]-4-hydroxy-N-{[4-(4-methyl-1,3-thiazol-5-yl)phenyl]methyl}pyrrolidine-2-carboxamide] |  | 1000 to 10000
 | < 10 | Cc1ncsc1-c1ccc(CNC(=O)[C@@H]2C[C@@H](O)CN2C(=O)[C@@H](NC(=O)COCCN2CCCC(n3cc(-c4cnc(N)c5c(-c6ccc(NS(=O)(=O)C(F)F)c(O[C@@H](C)c7ccc(F)cc7)c6)nn(C)c45)cn3)C2)C(C)(C)C)cc1 (stereo partly drawn) [Compound 1015, (2S,4R)-1-[(2S)-2-(2-{2-[3-(4-{4-amino-3-[4-(difluoromethanesulfonamido)-3-[(1S)-1-(4-fluorophenyl)ethoxy]phenyl]-1-methyl-1H-pyrazolo[4,3-c]pyridin-7-yl}-1H-pyrazol-1-yl)piperidin-1-yl]ethoxy}acetamido)-3,3-dimethylbutanoyl]-4-hydroxy-N-{[4-(4-methyl-1,3-thiazol-5-yl)phenyl]methyl}pyrrolidine-2-carboxamide] |  | 1000 to 10000
 | < 10 | Cc1ncsc1-c1ccc(CNC(=O)[C@@H]2C[C@@H](O)CN2C(=O)[C@@H](NC(=O)COCCN2CCC(n3cc(-c4cnc(N)c5c(-c6ccc(NS(=O)(=O)C(F)F)c(O[C@@H](C)c7ccc(F)cc7)c6)nn(C)c45)cn3)CC2)C(C)(C)C)cc1 [Compound 1018, (2S,4R)-1-[(2S)-2-(2-{2-[4-(4-{4-amino-3-[4-(difluoromethanesulfonamido)-3-[(1S)-1-(4-fluorophenyl)ethoxy]phenyl]-1-methyl-1H-pyrazolo[4,3-c]pyridin-7-yl}-1H-pyrazol-1-yl)piperidin-1-yl]ethoxy}acetamido)-3,3-dimethylbutanoyl]-4-hydroxy-N-{[4-(4-methyl-1,3-thiazol-5-yl)phenyl]methyl}pyrrolidine-2-carboxamide] |  | 1000 to 10000
 | 10 to 1000 | C[C@H](Oc1cc(-c2nn(C)c3c(-c4cnn(CCCCCCCOc5cccc6c5C(=O)N(C5CCC(=O)NC5=O)C6=O)c4)cnc(N)c23)ccc1NS(=O)(=O)C(F)F)c1ccc(F)cc1 (stereo partly drawn) [Compound 1031, N-(4-{4-amino-7-[1-(7-{[2-(2,6-dioxopiperidin-3-yl)-1,3-dioxo-2,3-dihydro-1H-isoindol-4-yl]oxy}heptyl)-1H-pyrazol-4-yl]-1-methyl-1H-pyrazolo[4,3-c]pyridin-3-yl}-2-[(1 S)-1-(4-fluorophenyl)ethoxy]phenyl)-1,1-difluoromethanesulfonamide] |  | < 1000
< 1 |  | N-(4-(4-amino-1-methyl-7-(1-(1,2,2-trimethylpiperidin-4-yl)-1H-pyrazol-4-yl)-1H-pyrazolo[4,3-c]pyridin-3-yl)-2-((S)-1-(4-fluorophenyl)ethoxy)phenyl)-1,1-difluoromethanesulfonamide [Compound 113] | < 1000 | 
